# Data as given in PubChem BioAssay (NCI).
# Values joined by “and” are separate entries in the source; they are usually repeats but may differ in a detail not shown here. Identical values can stand only once.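 Five concentrations, 48 hours, 96-well plates. The concentration for 50% growth inhibition is given as GI50. TGI: concentration producing complete growth inhibition.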
# How the values were obtained:
# Assay in all cases: inhibition of tumour cell growth, NCI panel, 48 h
# SW-620 colon = tested on: SW-620 colon
# UACC-257 melanoma = tested on: UACC-257 melanoma
# 786-0 renal = tested on: 786-0 renal
# HCC-2998 colon = tested on: HCC-2998 colon
# CAKI-1 renal = tested on: CAKI-1 renal
# SF-539 CNS = tested on: SF-539 CNS
# M14 melanoma = tested on: M14 melanoma
# IGROV1 ovarian = tested on: IGROV1 ovarian
# NCI-H460 lung = tested on: NCI-H460 lung
# DU-145 prostate = tested on: DU-145 prostate
SMILES,TGI (SW-620 colon),TGI (UACC-257 melanoma),TGI (786-0 renal),TGI (HCC-2998 colon),TGI (CAKI-1 renal),TGI (SF-539 CNS),TGI (M14 melanoma),TGI (IGROV1 ovarian),TGI (NCI-H460 lung),TGI (DU-145 prostate),GI50 (SW-620 colon),GI50 (UACC-257 melanoma),GI50 (786-0 renal),GI50 (HCC-2998 colon),GI50 (CAKI-1 renal),GI50 (SF-539 CNS),GI50 (M14 melanoma),GI50 (IGROV1 ovarian),GI50 (NCI-H460 lung),GI50 (DU-145 prostate)
O=C1NC(=S)NNC12c1ccccc1-c1ccccc12,> 10 µM,> 10 µM,> 10 µM,> 10 µM,> 10 µM,> 10 µM,> 10 µM,> 10 µM,> 10 µM,> 10 µM,,,,,,,,,,
CCN(CC)c1nc(-c2ccc(Cl)cc2Cl)nc2ccccc12,34.4 µM,50.7 µM,61.9 µM,31.7 µM,62.4 µM,41.9 µM,37.9 µM,> 100 µM,> 79.5 µM,> 58.9 µM,15.5 µM,17.3 µM,22.2 µM,16.7 µM,16.5 µM,20.3 µM,18 µM,25.9 µM,23.9 µM,13.6 µM
Cc1csc(Nc2nc(-c3cccc(Br)c3)nc(C(Cl)(Cl)Cl)n2)n1,> 100 µM,> 100 µM,> 100 µM,3.57 µM,> 100 µM,> 100 µM,> 100 µM,> 100 µM,3.53 µM,3.21 µM,3.29 µM,3.34 µM,7.75 µM,1.63 µM,2.41 µM,3.09 µM,> 100 µM,> 100 µM,1.16 µM,0.419 µM
N=c1ccn2c(n1)OC1C(O)C(CO)OC12 (stereo not drawn),> 1000 µM,> 1000 µM,> 1000 µM,,260 µM and > 100 µM,> 1000 µM,,> 1000 µM,168 µM and > 100 µM,> 1000 µM,5.76 µM and 1.28 µM,> 100 µM,0.652 µM,0.0303 µM,0.394 µM,31.9 µM,0.228 µM,4.02 µM,0.242 µM,2.53 µM and 0.886 µM
Oc1cc(O)c2c(c1)OC(c1ccc(O)c(O)c1)C(OC1(c3cc(O)c(O)c(O)c3)Oc3cc(O)cc(O)c3C(O)C1O)C2 (stereo not drawn),60.4 µM,> 100 µM,67.8 µM,> 100 µM,81.1 µM,> 74.9 µM,> 65.6 µM,> 86.2 µM,36.8 µM,> 75.5 µM,,,,,,,,,,
Cc1ccc(-c2nc3ccc([N+](=O)[O-])cc3[nH]2)cc1,> 100 µM,> 100 µM,> 100 µM,> 100 µM,> 100 µM,> 100 µM,> 100 µM,> 100 µM,> 100 µM,> 100 µM,,,,,,,,,,
C=CCCCCCCCCCCC1(O)C=CC2=[N+](CCCCCN=C(N)N)CCCN21 (stereo not drawn),24.2 µM,> 55.7 µM,29.8 µM,24.6 µM,14.1 µM,7.71 µM,> 51.5 µM,30.1 µM,19.9 µM,26.6 µM,8.11 µM,22.7 µM,7.47 µM,2.66 µM,3.22 µM,2.84 µM,22.8 µM,10.9 µM,4.38 µM,12.2 µM
